# Experimental data as given in ChEMBL document CHEMBL3885861, “Open TG-GATES”.
# Organism: Rattus norvegicus
# Assay: Open TG-GATES - Regimen: Daily Repeat
# Type: toxicity, organism-based, Sprague-Dawley
# Set-up: regimen Daily Repeat, gender Male, age 6 weeks
# Conditions: in vivo, po, 0 mg/kg, route gavage, dose level Control; for APTT / Bas / Eos / Fbg / Hb / Ht / Lym / MCHC / MCV / Mono / Neu / PT / Plat / RBC / Ret / WBC / MCH: tissue Blood; for KIDNEY_L / KIDNEY_R / KIDNEY_TOTAL: tissue Kidney; for LIVER: tissue Liver; for ALP / ALT / AST / BUN / CRE / Ca / DBIL / GLC / K / LDH / Na / PL / RALB / TBIL / TC / TG / TP / gamma-GTP: tissue Plasma
smiles,measurement,setting,value
CCCCc1oc2ccccc2c1C(=O)c1cc(I)c(OCCN(CC)CC)c(I)c1 [AMIODARONE],TERMINAL_BW,"72 h, time 3 day",226.9 g
same,APTT,"72 h, time 3 day",18.2 s
same,Bas,"72 h, time 3 day",0%
same,Eos,"72 h, time 3 day",0.8%
same,Fbg,"72 h, time 3 day",229 mg/dL
same,Hb,"72 h, time 3 day",13.5 g/dL
same,Ht,"72 h, time 3 day",39.6%
same,Lym,"72 h, time 3 day",74.8%
same,MCHC,"72 h, time 3 day",34.1%
same,MCV,"72 h, time 3 day",62.7 fL
same,Mono,"72 h, time 3 day",3%
same,Neu,"72 h, time 3 day",20.4%
same,PT,"72 h, time 3 day",12.3 s
same,Plat,"72 h, time 3 day",122.3 x10_4/uL
same,RBC,"72 h, time 3 day",631.4 x10_4/ul
same,Ret,"72 h, time 3 day",6.4%
same,WBC,"72 h, time 3 day",91.2 x10_2/uL
same,KIDNEY_L,"72 h, time 3 day",1 g
same,KIDNEY_R,"72 h, time 3 day",1 g
same,KIDNEY_TOTAL,"72 h, time 3 day",2 g
same,LIVER,"72 h, time 3 day",11.2 g
same,ALP,"72 h, time 3 day",985.8 IU/L
same,ALT,"72 h, time 3 day",37.8 IU/L
same,AST,"72 h, time 3 day",72.6 IU/L
same,BUN,"72 h, time 3 day",16.2 mg/dL
same,CRE,"72 h, time 3 day",0.4 mg/dL
same,Ca,"72 h, time 3 day",10.9 mg/dL
same,DBIL,"72 h, time 3 day",0.096 mg/dL
same,GLC,"72 h, time 3 day",207.4 mg/dL
same,K,"72 h, time 3 day",3.9 meq/L
same,LDH,"72 h, time 3 day",213 IU/L
same,Na,"72 h, time 3 day",140.6 meq/L
same,PL,"72 h, time 3 day",162.4 mg/dL
same,RALB,"72 h, time 3 day",3.5 g/dL
same,TBIL,"72 h, time 3 day",0.1 mg/dL
same,TC,"72 h, time 3 day",77.6 mg/dL
same,TG,"72 h, time 3 day",113.2 mg/dL
same,TP,"72 h, time 3 day",5.8 g/dL
same,gamma-GTP,"72 h, time 3 day",1 IU/L
same,TERMINAL_BW,"[…], time 7 day",253.9 g
same,TERMINAL_BW,"[…], time 14 day",312.1 g
same,TERMINAL_BW,"[…], time 28 day",382 g
same,APTT,"[…], time 7 day",19.5 s
same,Bas,"[…], time 7 day",0%
same,Eos,"[…], time 7 day",1%
same,Fbg,"[…], time 7 day",218.2 mg/dL
same,Hb,"[…], time 7 day",13.6 g/dL
same,Ht,"[…], time 7 day",39.8%
same,Lym,"[…], time 7 day",78.4%
same,MCH,"[…], time 7 day",21.2 pg
same,MCV,"[…], time 7 day",61.9 fL
same,Mono,"[…], time 7 day",2.4%
same,Neu,"[…], time 7 day",17%
same,PT,"[…], time 7 day",12 s
same,Plat,"[…], time 7 day",117.4 x10_4/uL
same,RBC,"[…], time 7 day",642.8 x10_4/ul
same,Ret,"[…], time 7 day",5.1%
same,WBC,"[…], time 7 day",102.5 x10_2/uL
same,APTT,"[…], time 14 day",19.9 s
same,Bas,"[…], time 14 day",0%
same,Eos,"[…], time 14 day",0.8%
same,Fbg,"[…], time 14 day",231.8 mg/dL
same,Hb,"[…], time 14 day",14.4 g/dL
same,Ht,"[…], time 14 day",41.2%
same,Lym,"[…], time 14 day",81.4%
same,MCH,"[…], time 14 day",20.9 pg
same,MCHC,"[…], time 14 day",34.8%
same,MCV,"[…], time 14 day",59.9 fL
same,Mono,"[…], time 14 day",2.8%
same,Neu,"[…], time 14 day",13.8%
same,Plat,"[…], time 14 day",128.6 x10_4/uL
same,RBC,"[…], time 14 day",689.2 x10_4/ul
same,Ret,"[…], time 14 day",4.6%
same,WBC,"[…], time 14 day",85.2 x10_2/uL
same,APTT,"[…], time 28 day",21.2 s
same,Bas,"[…], time 28 day",0%
same,Eos,"[…], time 28 day",1%
same,Fbg,"[…], time 28 day",224.6 mg/dL
same,Hb,"[…], time 28 day",15.5 g/dL
same,Ht,"[…], time 28 day",43.9%
same,Lym,"[…], time 28 day",78.4%
same,MCH,"[…], time 28 day",19.9 pg
same,MCHC,"[…], time 28 day",35.4%
same,MCV,"[…], time 28 day",56.3 fL
same,Mono,"[…], time 28 day",2.4%
same,Neu,"[…], time 28 day",17.2%
same,PT,"[…], time 28 day",12.4 s
same,Plat,"[…], time 28 day",111.1 x10_4/uL
same,RBC,"[…], time 28 day",779.2 x10_4/ul
same,Ret,"[…], time 28 day",2.6%
same,WBC,"[…], time 28 day",92.4 x10_2/uL
same,KIDNEY_L,"[…], time 7 day",1.1 g
same,KIDNEY_R,"[…], time 7 day",1.1 g
same,KIDNEY_TOTAL,"[…], time 7 day",2.2 g
same,KIDNEY_L,"[…], time 14 day",1.2 g
same,KIDNEY_R,"[…], time 14 day",1.2 g
same,KIDNEY_TOTAL,"[…], time 14 day",2.5 g
same,KIDNEY_L,"[…], time 28 day",1.4 g
same,KIDNEY_R,"[…], time 28 day",1.3 g
same,KIDNEY_TOTAL,"[…], time 28 day",2.7 g
same,LIVER,"[…], time 7 day",12.1 g
same,LIVER,"[…], time 14 day",14.6 g
same,LIVER,"[…], time 28 day",15 g
same,ALP,"[…], time 7 day",963.6 IU/L
same,ALT,"[…], time 7 day",34 IU/L
same,AST,"[…], time 7 day",62.6 IU/L
same,BUN,"[…], time 7 day",16.6 mg/dL
same,CRE,"[…], time 7 day",0.4 mg/dL
same,Ca,"[…], time 7 day",10.6 mg/dL
same,DBIL,"[…], time 7 day",0.1 mg/dL
same,GLC,"[…], time 7 day",209.6 mg/dL
same,K,"[…], time 7 day",3.8 meq/L
same,LDH,"[…], time 7 day",179.6 IU/L
same,Na,"[…], time 7 day",140.4 meq/L
same,PL,"[…], time 7 day",158.4 mg/dL
same,RALB,"[…], time 7 day",3.4 g/dL
same,TBIL,"[…], time 7 day",0.2 mg/dL
same,TC,"[…], time 7 day",73.6 mg/dL
same,TG,"[…], time 7 day",116.6 mg/dL
same,TP,"[…], time 7 day",5.6 g/dL
same,gamma-GTP,"[…], time 7 day",1.6 IU/L
same,ALP,"[…], time 14 day",896.2 IU/L
same,ALT,"[…], time 14 day",40.6 IU/L
same,AST,"[…], time 14 day",70.8 IU/L
same,BUN,"[…], time 14 day",16.6 mg/dL
same,CRE,"[…], time 14 day",0.5 mg/dL
same,Ca,"[…], time 14 day",10.7 mg/dL
same,DBIL,"[…], time 14 day",0.09 mg/dL
same,GLC,"[…], time 14 day",233.8 mg/dL
same,K,"[…], time 14 day",3.5 meq/L
same,LDH,"[…], time 14 day",206.4 IU/L
same,Na,"[…], time 14 day",140.2 meq/L
same,PL,"[…], time 14 day",160.8 mg/dL
same,RALB,"[…], time 14 day",3.5 g/dL
same,TBIL,"[…], time 14 day",0.2 mg/dL
same,TG,"[…], time 14 day",117 mg/dL
same,TP,"[…], time 14 day",6 g/dL
same,gamma-GTP,"[…], time 14 day",1 IU/L
same,ALP,"[…], time 28 day",614.8 IU/L
same,ALT,"[…], time 28 day",37.6 IU/L
same,AST,"[…], time 28 day",61.6 IU/L
same,BUN,"[…], time 28 day",17.4 mg/dL
same,CRE,"[…], time 28 day",0.4 mg/dL
same,Ca,"[…], time 28 day",10.4 mg/dL
same,DBIL,"[…], time 28 day",0.1 mg/dL
same,GLC,"[…], time 28 day",214.4 mg/dL
same,K,"[…], time 28 day",3.7 meq/L
same,LDH,"[…], time 28 day",158.6 IU/L
same,Na,"[…], time 28 day",140.2 meq/L
same,PL,"[…], time 28 day",151 mg/dL
same,RALB,"[…], time 28 day",3.4 g/dL
same,TBIL,"[…], time 28 day",0.2 mg/dL
same,TC,"[…], time 28 day",67 mg/dL
same,TG,"[…], time 28 day",152.4 mg/dL
